Measured values published in PubChem BioAssay AID651703 (Broad Institute, 2012).

The compounds below were run against Transforming acidic coiled-coil-containing protein 3 (Homo sapiens) (UniProt Q9Y6A5) (assay: inhibition of ARNT PAS-B/TACC3 complex formation – biochemical, AlphaScreen, cherry-picked samples, confirmation (AID 651703;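 further: TACC3 partner is the GST-tagged E629A mutant dimer; hits lower the signal meaning they disrupt ARNT binding to TACC3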)). Conditions: AlphaScreen His-ARNT PAS-B / GST-TACC3 binding, luminescence.

Row | AC50 [µM] | SMILES
1 | 14.3 | O=C(Nc1ccc(F)cc1)c1nc[nH]c1C(=O)O
2 | 1.85 | Oc1c(C(c2ccccc2Cl)N2CCCC2)ccc2cccnc12 (stereo not drawn)
3 | 20.8 | COc1cc(OC)cc(C(=O)Nc2nnc(-c3cccnc3)o2)c1
4 | 0.963 | COc1ccc(NC(=O)CSc2n[nH]c(-c3ccccn3)n2)cc1
5 | < 0.5 | OCCCNc1nc(-c2ccccn2)nnc1-c1ccccc1
6 | 4.18 | O=C(CSc1ccc(-c2ccccn2)nn1)NCc1ccccc1
7 | 26.9 | N#CC1=C(N)Oc2c(ccc3cccnc23)C1c1ccncc1 (stereo not drawn)
8 | 58.6 | COc1ccc(C2C(C#N)=C(N)Oc3c2ccc2cccnc32)cc1OC (stereo not drawn)
9 | 31.1 | COCCn1c(-c2ccccc2)cnc1N
10 | 2.71 | CC(=O)NC(c1cccs1)c1cc([N+](=O)[O-])c2cccnc2c1O (stereo not drawn)
11 | 31.9 | CC1CCCN(S(=O)(=O)c2ccc(C(=O)Nc3nnc(C4CC4)o3)cc2)C1 (stereo not drawn)
12 | 22.5 | CN(Cc1ccccc1)C(=O)c1[nH]cnc1C(=O)Nc1nccs1
13 | 23 | O=C(N/N=C/c1sc2ccccc2c1O)c1cccc2ccccc12
14 | 5.3 | CCCC(=O)NC(c1ccc(N(C)C)cc1)c1ccc2cccnc2c1O (stereo not drawn)
15 | 4.52 | CC(NC(=O)c1ccco1)C(=O)Nc1nc(-c2ccccn2)cs1 (stereo not drawn)
16 | 67.6 | COC(=O)C1=COC(C)C2CN3CCc4c([nH]c5cc(OC)c(OC)cc45)C3CC12 (stereo not drawn)
17 | 3.07 | O=C(Nc1nc(-c2ccccn2)cs1)c1cc(Cl)ccc1[N+](=O)[O-]
18 | 7.83 | COc1ccccc1C(CCNCc1ccc(N(C)C)cc1)c1ccc(OC(C)C)cc1 (stereo not drawn)
19 | 34.8 | COc1cc(CCNC2=CC(=O)c3ncccc3C2=O)ccc1O
20 | 18.3 | O=C(Oc1c(CN2CCOCC2)cc(Cl)c2cccnc12)c1ccccc1

Row | AC50 [µM] | SMILES
21 | 1.79 | Cc1cccc(CSc2cccc3cccnc23)c1
22 | 19.9 | Cc1[nH][nH]c(=O)c1C(c1c(C)[nH][nH]c1=O)c1cn(Cc2cccc3ccccc23)c2ccccc12
23 | 20.4 | CCOc1ccc(C2=Nn3c(nnc3-c3ccccn3)SC2)cc1
24 | 49.7 | O=C(CSc1ccc2nnc(-c3ccccn3)n2n1)NCC1CCCO1 (stereo not drawn)
25 | 1.77 | CN1CCN(c2cc(-c3cc(O)c4ncccc4c3)ccn2)CC1
26 | 48.2 | O=S(=O)(c1cccc2cccnc12)N1CCN(Cc2ccc(OCCO)cc2)CC1
27 | 57.9 | NS(=O)(=O)c1ccc(N=Nc2c[nH]c(=O)c(O)c2)cc1
28 | 13.4 | CCOC(=O)N1CCN(S(=O)(=O)c2ccc(C(=O)Nc3nnc(C4CC4)o3)cc2)CC1
29 | 25.4 | CS(=O)(=O)c1ccccc1-c1nnc(NC(=O)c2ccc3ncsc3c2)o1
30 | 34.3 | O=C(Nc1nnc(C2=COCCO2)o1)c1ccc([N+](=O)[O-])cc1
31 | 21.7 | Cc1cccc(C(=O)Nc2nnc(-c3cccnc3)o2)c1
32 | 15.5 | O=C(Nc1nc(-c2ccccn2)cs1)C1CCCC1
33 | 9.77 | COCCN=c1scc(-c2ccco2)n1/N=C/c1ccc(O)c(O)c1O
34 | 19.6 | O=C(COc1ccc(Cl)cc1)Nc1nnc(-c2ccco2)o1
35 | 15.8 | O=C(N[C@H]1CC[C@@H](CCn2cc(-c3ccccn3)nn2)O[C@@H]1CO)c1ccncc1
36 | 8.66 | NNc1nnc(-c2ccccc2)c(-c2ccccc2)n1
37 | 1.47 | CC(=O)NC(c1cc(Cl)c2cccnc2c1O)C(C)C (stereo not drawn)
38 | 15.5 | O=C(N[C@H]1CC[C@@H](CCn2cc(-c3ccccn3)nn2)O[C@@H]1CO)c1ccccc1
39 | 64.7 | Cc1ccc(Cn2cccc(NS(C)(=O)=O)c2=O)cc1
40 | 36.6 | Cc1oc(C(=O)O)cc1COc1cccc2cccnc12

Row | AC50 [µM] | SMILES
41 | 65.8 | O=C(CN1CCCCCCC1)N/N=C/c1ccc(F)c(F)c1
42 | 37.6 | COc1ccc(Br)cc1CNc1ccc(O)cc1
43 | 5.91 | Clc1ccc(OCc2nc(-c3ccccn3)n[nH]2)cc1
44 | 22.4 | COc1ccc(S(=O)(=O)N2CCOC2CNC(=O)C(=O)NCCCn2ccnc2)cc1OC (stereo not drawn)
45 | 9.04 | Cc1ccsc1C(=O)Nc1nnc(-c2ccco2)o1
46 | 20.3 | CCOc1cc(N2CCOCC2)c(OCC)cc1NC(=O)COc1cccc2cccnc12
47 | 1.96 | O=C(CSc1ccc(-c2ccccn2)nn1)Nc1ccccc1
48 | 3.43 | Cc1ccc(S(=O)(=O)/N=C2\C=C(Nc3ccc(O)cc3)C(=O)c3ccccc32)cc1
49 | 8.98 | CCN(CC)S(=O)(=O)c1ccc(NN)nc1
50 | 23.6 | COc1ccc(NC(=O)Nc2ccc3c(c2)CC(=O)N([C@H](C)CO)C[C@H](C)[C@@H](CN(C)Cc2ccc(Oc4ccccc4)cc2)O3)cc1
51 | 8.7 | CC(Oc1ccc(F)cc1)C(=O)Nc1nc(-c2ccccn2)cs1 (stereo not drawn)
52 | 51.9 | C[C@H]1CN([C@@H](C)CO)C(=O)c2cccc(NC(=O)Nc3cccc4ccccc34)c2O[C@@H]1CN(C)S(=O)(=O)c1ccc(Cl)cc1
53 | < 0.5 | c1ccc(-c2nnc(-c3ccccn3)nc2NCc2ccccn2)cc1
54 | 0.614 | Oc1c(CN2CCOCC2)cc(COCc2ccccc2)c2cccnc12
55 | 10.3 | Nc1ccccc1C(=O)N=Nc1[nH]c(N)c2ccccc12
56 | 17.1 | O=C(Nc1nnc(-c2cccs2)o1)c1ccc(S(=O)(=O)N2CCOCC2)cc1
57 | 17.7 | N#CC1=C(N)Oc2c(ccc3cccnc23)C1c1ccccc1 (stereo not drawn)
58 | 31.2 | Fc1ccc(-c2ccc(CNCc3ccccn3)o2)cc1
